Laboratory results as given in publication PMC10060354, “Discovery of a small molecule ligand of FRS2 that inhibits invasion and tumor growth” (Cellular Oncology, 2022).
Values after ≈ are worked out from the molar mass of the structure shown. Like-named read-outs stand apart in the source and are kept apart here.

Legend:
[1] = system: HepG2 human hepatocellular carcinoma cells; assay: Cell viability (cytotoxicity, MTT) using HepG2; type: cell-based; settings: for MEC: 72h, 3 replicas, NR = No response (Summary sheet); for MTT (MEC) Minimum effective concentration: 72 h, summary sheet
How it was run: (§1)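 Compounds were tested at 8 concentrations in triplicate on HepG2 cells plated 24 h beforehand, with 72 h exposure in 1% DMSO medium. MTT was loaded 1 h before the end, solubilized in DMSO and read at 570 nm. Minimum effective concentration is the lowest concentration exceeding the significance level, given dose-response or two consecutive points above it.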

[2] = Cell viability (cytotoxicity, MTT) using HepG2; type: cell-based, human; settings: human, HepG2 cells, 72 h, summary sheet, read-out: MTT (AC50) Conc at which 50% of maximum efficacy is reached
How it was run: as §1

[3] = Semi-thermodynamic solubility; type: physicochemical; settings: for solubility / solubility thermodynamic: PBS, aqueous buffer, thermodynamic from solid; for solubility: Room Temp, Overnight, LC-MSMS; for solubility thermodynamic: overnight; for solubility thermodynamic / Solubility (class in words): summary sheet
How it was run: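 Compound solution agitated overnight at ambient temperature, then centrifuged twice (30 min, 3000 rpm, RT). Supernatant diluted in 50% methanol/water with internal standard and quantified by LC–MS/MS. Solubility derived from a linear or quadratic fit of the standard curve.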

[4] = CaCo-2 permeability (bi-directional); settings: human
How it was run: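 Caco-2 monolayers (passage 40–60) cultured 20 days on Transwells, equilibrated 40 min in HBSS; compound dosed apically (A-B) or basolaterally (B-A) with 1% v/v DMSO and lucifer yellow integrity marker, in duplicate. LC–MS/MS quantification; Papp from permeation rate, C0 and monolayer area; efflux ratio = Papp(B-A)/Papp(A-B).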

[5] = Microsomal metabolic stability; type: in vitro ADME; settings: human, pooled liver microsomes; for half-life at 1 µM: pH 7.4, liver microsomes, read-out: t1/2; for microsomal CLint at 1 µM: pH 7.4, read-out: Metabolic stability - Intrinsic clearance (CI)
How it was run: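 Pooled liver microsomes were incubated with NADPH for 0, 5, 15, 30 and 45 min; the minus-NADPH control (0.1 M phosphate pH 7.4) ran 45 min only. Reactions were stopped in acetonitrile and analysed by LC–MS/MS. t1/2 = 0.693/k came from the ln peak-area-ratio versus time slope, and CLint (μl/min/mg protein) was derived from it.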

DAOY cells = assay: Spheroid invasion assay (SIA), bFGF-induced collagen I invasion; type: cell-based, human; settings: DAOY; bFGF-induced; 1, 5 and 10 µM
How it was run: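 Spheroids formed over 24–72 h were embedded in collagen I (final 1.75 mg/ml) and stimulated with bFGF (100 ng/ml unless stated), HGF 30 ng/ml or EGF 20 ng/ml with compound in DMSO. Invasion distance was quantified 24–48 h after embedding.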

[6] = read-out: Solubility Replicate 1
[7] = read-out: Solubility Replicate 3
[8] = read-out: Solubility Replicate 4
[9] = Caco-2, Mean Papp B-A, Caco-2, summary sheet
[10] = Caco-2, pH 7.4, Mean % Recovery A2B, HBSS/HBSS, pH 7.4/7.4
[11] = Caco-2, pH 7.4, Mean % Recovery B2A, HBSS/HBSS, pH 7.4/7.4
[12] = Caco-2, pH 7.4, Mean Papp B2A, HBSS/HBSS, pH 7.4/7.4
[13] = Caco-2, pH 7.4, Papp B2A Replicate 1, HBSS/HBSS, pH 7.4/7.4
[14] = Caco-2, pH 7.4, Papp B2A Replicate 2, HBSS/HBSS, pH 7.4/7.4

SMILES | MEC [1] | MTT (MEC) Minimum effective concentration [1] | AC50 at 72 h [2] | solubility ([3]; read-out: Mean Solubility) | solubility [3, 6] | solubility [3, 7] | solubility [3, 8] | solubility thermodynamic [3] | Solubility (class in words) [3] | Papp B→A at 120 min, 10 μM [4, 9] | recovery at 120 min, 10 µM [4, 10] | recovery at 120 min, 10 µM [4, 11] | Papp B→A at 120 min, 10 μM [4, 12] | Papp B→A at 120 min, 10 μM [4, 13] | Papp B→A at 120 min, 10 μM [4, 14] | half-life at 1 µM [5] | microsomal CLint at 1 µM [5] | functional activity in SIA (result in words) (DAOY cells) | solubility ([3]; read-out: Solubility Replicate 2)
O=[N+]([O-])c1c(Cl)cc(O)c2c1C1C=CCC1C(c1ccc(Cl)cc1Cl)N2 (stereo not shown) [Compound 8] | 6.79 µM | 6.79 µM | 12.4 µM | > 100 µM | > 100 µM | > 100 µM | > 100 µM | > 100 µM | Freely | 7.05 ×10⁻⁶ cm/s | 32.1% | 33.3% | 7.05 ×10⁻⁶ cm/s | 7.14 ×10⁻⁶ cm/s | 6.96 ×10⁻⁶ cm/s | 3.35 min | 414 µL/min/mg | invasion inhibition only at the highest concentration | –
N#Cc1c(Cl)cc(O)c2c1C1C=CCC1C(c1ccc(Cl)cc1)N2 (stereo not shown) [Compound 14] | 3.93 µM | 3.93 µM | 5.24 µM | 24.8 µM (≈ 8.86 µg/mL) | 25 µM (≈ 8.93 µg/mL) | 27.2 µM (≈ 9.72 µg/mL) | 30.3 µM (≈ 10.8 µg/mL) | 24.8 µM (≈ 8.86 µg/mL) | Sparingly | 2.31 ×10⁻⁶ cm/s | 81.1% | 50.7% | 2.31 ×10⁻⁶ cm/s | 3.4 ×10⁻⁶ cm/s | 1.22 ×10⁻⁶ cm/s | 1.64 min | 845 µL/min/mg | reduced invasion comparable to the parent compound 7 | 16.6 µM (≈ 5.93 µg/mL)
